From BindingDB's records for doi:10.3109/14756360903508430 (University of Karachi, 2010)

What was measured:
Plasmepsin II = Plasmepsin II (Plasmodium falciparum (isolate HB3), UniProt P46925); assay: Fluorescence Resonance Energy Transfer (FRET)-Based Assay; details: pH 5
Method: (§1) The assay was performed with plasmepsin-II/cathepsin D (1.2 nM) and substrate (malaria FRET-1; 1.0 μM) in 0.1 M sodium acetate buffer pH 5, containing 10% glycerol and 0.01% Tween 20. The hydrazide and hydrazine compounds dissolved in DMSO were added in the reaction mixture before the addition of substrate. The assays were performed with 5% final concentration of DMSO. The enzyme inhibition experiments were performed (in triplicates) in 96-well plate format and readings were obtained on a Perkin Elmer LS55 fluorescence spectrometer, Waltham, Massachusetts, with an excitation and emission wavelengths of 336 and 490 nm respectively.

Cathepsin D = Cathepsin D (Homo sapiens, UniProt P07339); assay: as above; details: pH 5
Method: as §1

Sequence of Cathepsin D (P07339 65-162 limits assumed): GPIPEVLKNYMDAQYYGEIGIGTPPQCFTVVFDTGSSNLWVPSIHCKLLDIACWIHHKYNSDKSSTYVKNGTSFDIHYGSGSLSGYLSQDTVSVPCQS
Sequence of Cathepsin D (P07339 169-412 limits assumed): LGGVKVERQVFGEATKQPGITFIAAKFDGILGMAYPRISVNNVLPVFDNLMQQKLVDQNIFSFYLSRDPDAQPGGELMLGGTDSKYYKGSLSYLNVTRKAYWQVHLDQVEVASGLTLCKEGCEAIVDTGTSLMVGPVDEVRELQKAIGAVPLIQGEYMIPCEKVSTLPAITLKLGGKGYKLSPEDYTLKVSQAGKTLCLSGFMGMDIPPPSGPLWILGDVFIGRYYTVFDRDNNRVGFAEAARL
Sequence of Plasmepsin II (P46925 whole entry): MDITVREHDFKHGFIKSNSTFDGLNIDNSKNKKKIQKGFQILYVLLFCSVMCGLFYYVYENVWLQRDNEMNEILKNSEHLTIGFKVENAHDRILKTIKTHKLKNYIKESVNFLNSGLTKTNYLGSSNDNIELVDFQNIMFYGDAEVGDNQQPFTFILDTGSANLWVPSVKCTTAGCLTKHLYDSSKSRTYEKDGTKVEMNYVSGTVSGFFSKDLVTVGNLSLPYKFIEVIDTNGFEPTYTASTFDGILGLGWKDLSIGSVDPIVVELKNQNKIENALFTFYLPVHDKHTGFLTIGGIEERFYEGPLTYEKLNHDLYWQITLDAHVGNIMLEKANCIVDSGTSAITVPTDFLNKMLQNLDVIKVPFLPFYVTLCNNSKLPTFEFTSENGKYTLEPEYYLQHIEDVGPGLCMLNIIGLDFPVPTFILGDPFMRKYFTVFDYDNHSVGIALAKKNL

Structure (SMILES)	IC50 (Plasmepsin II) [µM]	IC50 (Cathepsin D) [µM]
CCCC(=O)NN [Butanohydrazide]	1.25	1.4
COc1ccccc1C(=O)NN	1.65	1.5
c1ccc(NNc2ccccc2)cc1 [1,2-Diphenylhydrazine]	1.05	2.4
c1cc(NNc2ccncc2)ccn1 [1,2-Dipyridinylhydrazine]	1.45	2.5
NNC(=O)c1ccccc1[N+](=O)[O-] [2-Nitrobenzohydrazide]	1	1.3
